Source: ChEMBL document CHEMBL4342404, “Anti-cholinesterase hybrids as multi-target-directed ligands against Alzheimer's disease (1998-2018)” (Bioorg Med Chem, 2019)

Tests used:
[1] = biological target: T1, Cholinesterase (Equus caballus, UniProt P81908); experiment: Inhibition of equine serum BuChE using S-butyrylthiocholine iodide as substrate preincubated for 6 mins followed by substrate addition and measured up to 180 secs by Ellman's method
[2] = biological target: T2, Acetylcholinesterase (Electrophorus electricus, UniProt O42275); experiment: Inhibition of electric eel AChE using acetylthiocholine iodide as substrate preincubated for 6 mins followed by substrate addition and measured up to 180 secs by Ellman's method
T2 sequence (O42275 whole entry): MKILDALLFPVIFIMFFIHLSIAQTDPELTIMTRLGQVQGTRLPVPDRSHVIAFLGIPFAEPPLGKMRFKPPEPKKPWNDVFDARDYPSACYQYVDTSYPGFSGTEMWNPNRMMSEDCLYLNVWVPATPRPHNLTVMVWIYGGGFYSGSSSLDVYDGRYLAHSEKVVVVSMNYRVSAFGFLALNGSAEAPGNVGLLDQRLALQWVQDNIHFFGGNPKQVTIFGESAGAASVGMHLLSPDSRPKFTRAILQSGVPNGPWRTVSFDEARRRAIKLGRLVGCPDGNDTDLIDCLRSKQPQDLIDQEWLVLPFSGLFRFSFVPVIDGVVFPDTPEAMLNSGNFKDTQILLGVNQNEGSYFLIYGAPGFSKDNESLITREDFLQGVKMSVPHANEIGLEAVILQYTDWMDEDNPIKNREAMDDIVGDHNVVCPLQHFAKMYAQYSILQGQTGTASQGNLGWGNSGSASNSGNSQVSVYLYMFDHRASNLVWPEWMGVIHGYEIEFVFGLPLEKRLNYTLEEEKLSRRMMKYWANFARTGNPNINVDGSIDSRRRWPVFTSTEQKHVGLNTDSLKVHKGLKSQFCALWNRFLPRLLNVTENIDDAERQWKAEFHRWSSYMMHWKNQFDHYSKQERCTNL

[3] = biological target: T3, Acetylcholinesterase (Homo sapiens, UniProt P22303); experiment: Inhibition of AChE (unknown origin)-induced human amyloid beta 1 to 40 aggregation at 100 uM by thioflavin-T fluorescence method relative to control
T3 sequence (P22303 whole entry): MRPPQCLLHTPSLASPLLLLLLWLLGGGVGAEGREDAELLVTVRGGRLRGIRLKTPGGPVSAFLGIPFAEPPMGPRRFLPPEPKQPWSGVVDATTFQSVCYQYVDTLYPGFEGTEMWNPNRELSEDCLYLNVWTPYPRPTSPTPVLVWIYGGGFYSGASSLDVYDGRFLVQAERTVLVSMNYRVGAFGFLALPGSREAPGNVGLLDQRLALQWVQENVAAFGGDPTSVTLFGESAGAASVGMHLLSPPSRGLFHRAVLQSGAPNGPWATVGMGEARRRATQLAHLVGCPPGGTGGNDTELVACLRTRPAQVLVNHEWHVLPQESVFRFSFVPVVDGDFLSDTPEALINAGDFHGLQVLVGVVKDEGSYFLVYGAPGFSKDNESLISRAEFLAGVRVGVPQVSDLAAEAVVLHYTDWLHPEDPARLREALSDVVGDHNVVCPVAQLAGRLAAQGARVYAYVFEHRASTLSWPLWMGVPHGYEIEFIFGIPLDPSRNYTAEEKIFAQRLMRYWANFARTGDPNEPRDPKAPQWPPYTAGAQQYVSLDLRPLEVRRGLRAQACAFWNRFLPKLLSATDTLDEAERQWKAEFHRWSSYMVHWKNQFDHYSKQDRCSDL

[4] = biological target: 5-hydroxytryptamine receptor 1A (Homo sapiens, UniProt P08908); experiment: Agonist activity at human 5H1A receptor expressed in HEK293 cells incubated for 60 mins by Eu-cAMP tracer based LANCE ultra cAMP assay; assay type: functional, cell-based
[5] = biological target: T4, Acetylcholinesterase (Rattus norvegicus, UniProt P37136); experiment: Inhibition of rat cortex acetylcholinesterase using acetylthiocholine iodide as substrate incubated for 20 mins by Ellman's method
T4 sequence (P37136 whole entry): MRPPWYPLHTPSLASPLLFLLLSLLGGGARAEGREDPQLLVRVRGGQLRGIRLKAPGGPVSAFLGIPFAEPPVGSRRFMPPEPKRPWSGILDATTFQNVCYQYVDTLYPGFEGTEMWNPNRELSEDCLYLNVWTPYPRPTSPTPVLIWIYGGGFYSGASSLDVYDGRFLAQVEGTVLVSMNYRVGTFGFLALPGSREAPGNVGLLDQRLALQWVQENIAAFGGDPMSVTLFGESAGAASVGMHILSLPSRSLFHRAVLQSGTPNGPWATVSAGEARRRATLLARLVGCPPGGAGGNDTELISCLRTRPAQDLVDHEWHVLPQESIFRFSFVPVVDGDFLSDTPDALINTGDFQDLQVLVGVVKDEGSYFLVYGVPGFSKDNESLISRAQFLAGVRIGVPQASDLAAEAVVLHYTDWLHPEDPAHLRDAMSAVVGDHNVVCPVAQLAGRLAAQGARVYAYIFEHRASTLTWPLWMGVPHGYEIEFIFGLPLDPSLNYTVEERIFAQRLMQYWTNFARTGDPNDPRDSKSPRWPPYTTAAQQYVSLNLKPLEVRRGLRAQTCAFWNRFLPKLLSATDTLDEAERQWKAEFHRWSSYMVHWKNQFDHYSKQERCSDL

[6] = biological target: Sodium-dependent serotonin transporter (Homo sapiens, UniProt P31645); experiment: Inhibition of SERT (unknown origin) expressed in HEK293 cells assessed as reduction in 5-HT reuptake incubated for 30 mins followed by centrifugation for 15 secs and measured after 30 mins; assay type: cell-based
Sequence of Sodium-dependent serotonin transporter (P31645 whole entry): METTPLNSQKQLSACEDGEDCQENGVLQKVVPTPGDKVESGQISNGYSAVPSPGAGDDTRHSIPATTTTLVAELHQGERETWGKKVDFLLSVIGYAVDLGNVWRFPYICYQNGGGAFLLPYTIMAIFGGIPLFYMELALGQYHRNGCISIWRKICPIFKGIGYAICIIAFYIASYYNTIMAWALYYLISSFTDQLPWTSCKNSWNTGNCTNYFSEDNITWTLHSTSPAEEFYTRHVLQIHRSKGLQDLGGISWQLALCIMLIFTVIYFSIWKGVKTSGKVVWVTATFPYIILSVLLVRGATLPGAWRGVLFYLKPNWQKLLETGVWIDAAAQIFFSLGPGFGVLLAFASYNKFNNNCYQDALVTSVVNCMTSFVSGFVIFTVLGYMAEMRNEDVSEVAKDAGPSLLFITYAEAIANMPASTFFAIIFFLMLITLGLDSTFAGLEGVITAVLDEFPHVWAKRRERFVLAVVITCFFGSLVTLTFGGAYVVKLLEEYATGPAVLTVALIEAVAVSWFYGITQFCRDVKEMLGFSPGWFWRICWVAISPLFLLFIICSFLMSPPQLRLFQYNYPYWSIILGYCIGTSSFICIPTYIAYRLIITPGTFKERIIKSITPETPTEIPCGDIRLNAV

[7] = biological target: T5, Cholinesterase (Homo sapiens, UniProt P06276); experiment: Inhibition of human butyrylcholinesterase by Ellman's method
T5 sequence (P06276 whole entry): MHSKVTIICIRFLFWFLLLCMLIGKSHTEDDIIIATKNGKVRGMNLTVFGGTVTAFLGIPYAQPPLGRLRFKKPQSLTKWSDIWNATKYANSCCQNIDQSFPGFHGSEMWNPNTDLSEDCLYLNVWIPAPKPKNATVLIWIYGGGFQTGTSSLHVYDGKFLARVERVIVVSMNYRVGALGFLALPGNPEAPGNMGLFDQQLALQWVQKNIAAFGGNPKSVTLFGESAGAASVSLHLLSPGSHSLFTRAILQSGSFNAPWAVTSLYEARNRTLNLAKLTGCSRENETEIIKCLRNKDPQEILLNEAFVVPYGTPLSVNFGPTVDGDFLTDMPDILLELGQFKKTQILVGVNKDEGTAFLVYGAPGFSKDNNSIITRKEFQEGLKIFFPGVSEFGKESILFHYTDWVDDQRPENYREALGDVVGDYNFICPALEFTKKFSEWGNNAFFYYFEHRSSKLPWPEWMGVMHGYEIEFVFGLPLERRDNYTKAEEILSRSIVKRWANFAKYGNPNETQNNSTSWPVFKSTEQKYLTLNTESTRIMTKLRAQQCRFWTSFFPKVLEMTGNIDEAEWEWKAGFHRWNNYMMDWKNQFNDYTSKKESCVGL

[8] = biological target: T2, Acetylcholinesterase
Description: Inhibition of electric eel AChE using acetylthiocholine iodide as substrate preincubated for 15 mins followed by substrate addition and measured after 15 mins by Ellman's method

[9] = biological target: T1, Cholinesterase
Description: Inhibition of equine serum BuChE preincubated for 15 mins followed by substrate addition and measured after 15 mins by Ellman's method

[10] = biological target: Amyloid-beta precursor protein (Homo sapiens) (UniProt P05067); experiment: Inhibition of HFIP pretreated amyloid beta (1-42) (unknown origin) self aggregation at 20 uM incubated for 48 hrs by thioflavin T based fluorescence assay relative to control
Sequence of Amyloid-beta precursor protein (Homo sapiens) (P05067 whole entry): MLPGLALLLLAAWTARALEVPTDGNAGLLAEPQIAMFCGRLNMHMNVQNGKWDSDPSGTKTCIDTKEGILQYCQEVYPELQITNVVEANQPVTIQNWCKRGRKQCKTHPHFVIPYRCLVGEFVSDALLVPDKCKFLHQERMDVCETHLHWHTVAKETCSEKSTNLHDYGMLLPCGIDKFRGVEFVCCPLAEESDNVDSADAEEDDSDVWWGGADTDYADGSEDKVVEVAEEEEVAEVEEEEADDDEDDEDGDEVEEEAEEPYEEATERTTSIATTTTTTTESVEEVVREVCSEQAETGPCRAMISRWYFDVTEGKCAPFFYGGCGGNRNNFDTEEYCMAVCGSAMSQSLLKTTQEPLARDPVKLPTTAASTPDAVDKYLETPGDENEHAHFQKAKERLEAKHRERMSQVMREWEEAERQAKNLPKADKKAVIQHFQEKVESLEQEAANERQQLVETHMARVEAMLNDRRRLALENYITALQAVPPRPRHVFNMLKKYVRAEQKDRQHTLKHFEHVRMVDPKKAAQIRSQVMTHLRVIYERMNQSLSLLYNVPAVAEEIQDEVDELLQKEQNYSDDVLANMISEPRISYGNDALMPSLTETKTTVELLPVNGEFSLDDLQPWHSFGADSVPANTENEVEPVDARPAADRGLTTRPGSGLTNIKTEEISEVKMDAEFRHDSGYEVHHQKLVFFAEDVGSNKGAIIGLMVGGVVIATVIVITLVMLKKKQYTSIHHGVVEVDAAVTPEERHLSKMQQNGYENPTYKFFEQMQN

[11] = Antioxidant activity assessed as trolox equivalent of AAPH radical scavenging activity at 10 uM preincubated for 10 mins followed by APPH addition and measured every min for 120 mins by ORAC-FL assay relative to trolox; assay type: functional
[12] = biological target: T3, Acetylcholinesterase
[13] = biological target: T5, Cholinesterase; experiment: Inhibition of human butyrylcholinesterase
[14] = Cytotoxicity against human HepG2 cells assessed as cell viability at 1000 uM by MTT assay relative to control; assay type: cell-based; conditions: read-out: Activity
[15] = Antioxidant activity assessed as AAPH radical scavenging activity measured every min for 60 mins by ORAC-FL assay relative to trolox; assay type: functional
[16] = biological target: T5, Cholinesterase; experiment: Inhibition of human serum butyrylcholinesterase using butyrylthiocholine iodide as substrate preincubated for 20 mins followed by substrate addition preincubated for 20 mins followed by substrate addition by Ellman's method
[17] = biological target: T6, Acetylcholinesterase (Bos taurus, UniProt P23795)
T6 sequence (P23795 whole entry): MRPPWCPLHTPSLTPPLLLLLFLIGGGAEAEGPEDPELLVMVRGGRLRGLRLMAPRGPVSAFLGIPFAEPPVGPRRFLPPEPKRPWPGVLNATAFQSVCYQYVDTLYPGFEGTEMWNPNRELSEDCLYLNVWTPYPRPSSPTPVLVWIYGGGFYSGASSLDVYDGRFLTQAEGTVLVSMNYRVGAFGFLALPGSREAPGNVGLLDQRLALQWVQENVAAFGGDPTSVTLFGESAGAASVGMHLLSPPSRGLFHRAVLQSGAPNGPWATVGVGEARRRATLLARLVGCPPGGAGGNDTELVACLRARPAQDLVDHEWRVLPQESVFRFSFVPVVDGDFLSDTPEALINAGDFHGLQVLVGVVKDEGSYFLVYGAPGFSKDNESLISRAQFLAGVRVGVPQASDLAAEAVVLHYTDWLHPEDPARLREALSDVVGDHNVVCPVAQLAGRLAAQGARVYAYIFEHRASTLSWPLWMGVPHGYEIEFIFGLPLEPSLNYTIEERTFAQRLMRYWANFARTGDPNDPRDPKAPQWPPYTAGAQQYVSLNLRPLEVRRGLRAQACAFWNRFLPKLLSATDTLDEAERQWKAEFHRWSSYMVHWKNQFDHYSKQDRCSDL
Description: Inhibition of bovine erythrocyte acetylcholinesterase using acetylthiocholine as substrate by Ellman's method

[18] = biological target: Acetylcholinesterase (Rattus norvegicus) (UniProt P37136); experiment: Inhibition of acetylcholinesterase in Wistar rat primary cortical neuron cells assessed as reduction in amyloidbeta40 level at […] incubated for 24 hrs by ELISA relative to control
[19] = biological target: Histamine H3 receptor (Homo sapiens, UniProt Q9Y5N1); experiment: biochemical
Sequence of Histamine H3 receptor (Q9Y5N1 whole entry): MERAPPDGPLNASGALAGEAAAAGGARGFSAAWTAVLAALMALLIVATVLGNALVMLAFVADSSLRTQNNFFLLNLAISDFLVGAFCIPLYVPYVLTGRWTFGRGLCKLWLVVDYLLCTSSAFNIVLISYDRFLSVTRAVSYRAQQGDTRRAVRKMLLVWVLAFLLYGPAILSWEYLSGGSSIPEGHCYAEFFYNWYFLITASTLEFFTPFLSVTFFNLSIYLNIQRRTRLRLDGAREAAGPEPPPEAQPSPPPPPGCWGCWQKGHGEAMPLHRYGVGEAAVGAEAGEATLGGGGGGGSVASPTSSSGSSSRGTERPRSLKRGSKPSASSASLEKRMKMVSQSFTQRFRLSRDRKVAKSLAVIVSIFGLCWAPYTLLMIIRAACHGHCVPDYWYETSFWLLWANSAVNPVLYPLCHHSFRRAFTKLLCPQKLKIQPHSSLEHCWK
Description: Displacement of [3H]-N-alpha-methylhistamine from human H3R expressed in HEK293 cell membranes incubated for 90 mins by liquid scintillation counting method

[20] = biological target: Amine oxidase [flavin-containing] A (Homo sapiens, UniProt P21397)
Sequence of Amine oxidase [flavin-containing] A (P21397 whole entry): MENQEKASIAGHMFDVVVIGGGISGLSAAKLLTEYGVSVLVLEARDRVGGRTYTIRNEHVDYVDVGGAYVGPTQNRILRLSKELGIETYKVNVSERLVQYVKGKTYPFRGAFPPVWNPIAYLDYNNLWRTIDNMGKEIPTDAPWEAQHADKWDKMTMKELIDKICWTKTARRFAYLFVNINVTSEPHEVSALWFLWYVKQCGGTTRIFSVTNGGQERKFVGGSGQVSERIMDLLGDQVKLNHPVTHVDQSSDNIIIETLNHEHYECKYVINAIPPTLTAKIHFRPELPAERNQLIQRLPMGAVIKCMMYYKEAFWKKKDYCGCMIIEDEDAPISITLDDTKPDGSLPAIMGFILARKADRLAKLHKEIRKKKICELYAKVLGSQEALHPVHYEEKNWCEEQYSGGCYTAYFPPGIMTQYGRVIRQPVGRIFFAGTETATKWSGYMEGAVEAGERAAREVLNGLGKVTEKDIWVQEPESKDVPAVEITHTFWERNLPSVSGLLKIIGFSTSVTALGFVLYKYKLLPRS
Description: Inhibition of recombinant human MAOA expressed in baculovirus infected BTI insect cells using p-tyramine as substrate preincubated for 30 mins followed by substrate addition by Amplex red reagent/horseradish peroxidase coupled fluorescence assay

[21] = biological target: T5, Cholinesterase; experiment: Inhibition of human plasma butyrylcholinesterase by Ellman's method
[22] = biological target: T3, Acetylcholinesterase; experiment: biochemical
Description: Inhibition of human acetylcholinesterase expressed in HEK 293 cells using acetylthiocholine iodide as substrate by Ellman's method

[23] = biological target: T4, Acetylcholinesterase; experiment: Antagonist activity at Acetylcholinesterase in Sprague-Dawley rat phrenic nerve-hemidiaphragm assessed as reversal of d-tubocurarine induced neuromuscular blockade after 15 mins; conditions: read-out: I50
[24] = biological target: T2, Acetylcholinesterase; experiment: Inhibition of electric eel AChE using acetylthiocholine iodide as substrate pretreated followed by substrate addition and measured after 2 mins by Ellman's method
[25] = biological target: T5, Cholinesterase; experiment: Inhibition of human butyrylcholinesterase using butyrylthiocholine iodide as substrate pretreated followed by substrate addition and measured after 15 mins by Ellman's method
[26] = species: Homo sapiens; experiment: Selectivity index, ratio of IC50 for human AChE to IC50 for human BuChE
[27] = biological target: T1, Cholinesterase; experiment: Inhibition of equine serum BuChE using butyrylthiocholine iodide as substrate pretreated followed by substrate addition and measured after 2 mins by Ellman's method
[28] = biological target: T3, Acetylcholinesterase; experiment: Inhibition of human acetylcholinesterase using acetylthiocholine as substrate pretreated followed by substrate addition and measured after 15 mins by Ellman's method

T1 sequence (P81908 whole entry): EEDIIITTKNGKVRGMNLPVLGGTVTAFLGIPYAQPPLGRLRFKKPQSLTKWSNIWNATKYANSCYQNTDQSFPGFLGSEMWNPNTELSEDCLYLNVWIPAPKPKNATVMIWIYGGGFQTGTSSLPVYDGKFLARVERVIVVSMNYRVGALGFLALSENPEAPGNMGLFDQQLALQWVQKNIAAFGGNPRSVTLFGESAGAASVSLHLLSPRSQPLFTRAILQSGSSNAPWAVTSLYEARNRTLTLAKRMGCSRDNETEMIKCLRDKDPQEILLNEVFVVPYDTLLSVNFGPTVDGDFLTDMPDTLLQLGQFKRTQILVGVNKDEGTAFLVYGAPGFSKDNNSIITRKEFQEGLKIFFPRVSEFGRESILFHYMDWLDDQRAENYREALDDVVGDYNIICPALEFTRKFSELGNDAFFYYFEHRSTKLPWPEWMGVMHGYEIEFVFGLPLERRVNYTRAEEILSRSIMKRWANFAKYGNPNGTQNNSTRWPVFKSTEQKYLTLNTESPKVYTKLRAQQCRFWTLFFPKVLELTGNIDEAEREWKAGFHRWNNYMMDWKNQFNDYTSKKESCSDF

Compound: O=C(NCCCCCCNc1c2c(nc3ccccc13)CCCC2)c1cc(O)c2c(c1)C(=O)c1cccc(O)c1C2=O
- IC50 [1]: 200 nM
- IC50 [2]: 27.3 nM
- inhibition [3]: 70.2%

Compound: N#Cc1ccc2[nH]cc(CCCCN3CCN(c4c5c(nc6ccccc46)CCC5)CC3)c2c1
- EC50 [4]: 107 nM
- IC50 [5]: 3320 nM
- IC50 [6]: 76.3 nM

Compound: Cc1cc(=O)oc2cc(OC/C=C/CCn3cnc4c(N5CCCC5)ncnc43)ccc12
- IC50 [7]: 4650 nM

Compound: O=C(NCCc1c[nH]c2ccccc12)c1cc(-c2ccccc2Cl)on1
- IC50 [8]: 29500 nM
- IC50 [9]: 46100 nM

Compound: Oc1ccc(/C=C/c2cc(O)c3ncccc3c2)cc1
- inhibition [10]: 71.7%
- Ratio (umolequiv/umol) [11]: 2.18

Compound: COc1ccc2[nH]cc(CCNC(=O)CN(CCCC3CCN(Cc4ccccc4)CC3)C(=O)/C=C/c3ccc(O)c(OC)c3)c2c1
- IC50 [12]: 26.2 nM
- IC50 [13]: 17.5 nM

Compound: COc1ccc2nc3c(c(NCCCCCCCCN(CC(=O)Nc4ccc5ccccc5c4)C(=O)/C=C/c4ccc(O)c(OC)c4)c2c1)CCCC3
- viability at 1000 µM [14]: 59.4%
- Ratio [15]: 4.29
- IC50 [16]: 68.2 nM

Compound: C/C=C1\C2C=C(C)CC1c1c(nc3ccccc3c1N)C2 (racemic)
- IC50 [17]: 320 nM

Compound: CC(C(=O)NCCCCCCNc1c2c(nc3ccccc13)CCCC2)c1ccc(-c2ccccc2)c(F)c1 (centres undefined)
- inhibition [18]: 31%

Compound: C#CCN(C)Cc1cc2cc(OCCCC3CCN(Cc4ccccc4)CC3)ccc2n1C
- Ki [19]: 84.2 nM
- IC50 [20]: 0.27 nM
- IC50 [21]: 1820 nM
- IC50 [22]: 810 nM

Compound: CC1=C[C@@H]2Cc3nc4cc(F)ccc4c(N)c3[C@H](C1)C2 (racemic)
- IC50 [17]: 85 nM
- IC50 [23]: 8 nM

Compound: COc1cc(/C=C/C(=O)NCCNc2c3c(nc4ccccc24)CCCC3)ccc1OCc1ccccc1
- IC50 [24]: 15.8 nM
- IC50 [25]: 55.9 nM
- Selectivity Index [26]: 1
- IC50 [27]: 52.6 nM
- IC50 [28]: 55.1 nM
